Assay results taken from ChEMBL document CHEMBL4425153, “Matched and mixed cap derivatives in the tetracyclic indole class of HCV NS5A inhibitors” (Bioorg Med Chem Lett, 2016).
Positions count from the first letter of the chain named.

Legend:
[1] = tested on: Nonstructural protein 5A (Hepatitis C virus), Q5L478 [UNDEFINED MUTATION]; assay: Inhibition of HCV genotype 1a NS5A L31V mutant assessed as reduction in viral RNA level by cell based real time PCR method; conditions: Hepatitis C virus subtype 1a
[2] = tested on: T1, Nonstructural protein 5A (Hepatitis C virus), Q5L478 [Y93H]; assay: Inhibition of HCV genotype 1a NS5A Y93H mutant assessed as reduction in viral RNA level by cell based real time PCR method; conditions: Hepatitis C virus subtype 1a
T1 sequence (whole entry): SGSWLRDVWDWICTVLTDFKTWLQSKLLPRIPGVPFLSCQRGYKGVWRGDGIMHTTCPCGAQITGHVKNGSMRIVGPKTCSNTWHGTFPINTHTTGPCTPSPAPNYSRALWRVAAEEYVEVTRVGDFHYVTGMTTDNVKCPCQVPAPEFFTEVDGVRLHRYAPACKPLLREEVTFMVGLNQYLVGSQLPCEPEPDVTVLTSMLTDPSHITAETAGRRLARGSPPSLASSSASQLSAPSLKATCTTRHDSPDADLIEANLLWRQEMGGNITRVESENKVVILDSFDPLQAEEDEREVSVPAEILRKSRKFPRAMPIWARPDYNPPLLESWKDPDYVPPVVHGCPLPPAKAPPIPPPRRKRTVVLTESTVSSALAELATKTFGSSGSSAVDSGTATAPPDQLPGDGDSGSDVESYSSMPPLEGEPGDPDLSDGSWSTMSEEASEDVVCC

[3] = target: T2, Nonstructural protein 5A (Hepatitis C virus) (UniProt Q5L478); assay: Inhibition of wild type HCV genotype 2b NS5A assessed as reduction in viral RNA level by cell based real time PCR method; conditions: Hepatitis C virus subtype 2b
T2 sequence (whole entry): T1 sequence (whole entry) with H93Y

[4] = target: T2, Nonstructural protein 5A (Hepatitis C virus); assay: Inhibition of wild type HCV genotype 1a NS5A assessed as reduction in viral RNA level by cell based real time PCR method; conditions: Hepatitis C virus subtype 1a
[5] = Cmax in rat at 10 mg/kg; type: ADME, organism-based; set-up: dose 10 mg/kg; conditions: in vivo
[6] = Drug level in rat at 10 mg/kg measured at 1 hr; type: ADME, organism-based; conditions: in vivo, read-out: Drug uptake
[7] = Tmax in rat at 10 mg/kg; type: ADME, organism-based; conditions: in vivo
[8] = Oral bioavailability in rat at 5 mg/kg; type: ADME, organism-based; conditions: in vivo
[9] = Cmax in rat at 5 mg/kg; type: ADME, organism-based; set-up: dose 5 mg/kg; conditions: in vivo
[10] = AUC in rat at 5 mg/kg; type: ADME, organism-based; conditions: in vivo
[11] = Half life in rat at 5 mg/kg; type: ADME, organism-based; conditions: in vivo

| Structure (SMILES) | EC90 [1] [nM] | EC90 [2] [nM] | EC90 [3] [nM] | EC90 [4] [nM] | Cmax [5] [nM] | concentration at 1 h [6] [nM] | Tmax [7] [min] | bioavailability [8] [%] | Cmax [9] [nM] | AUC [10] [nM·h] | half-life [11] [min] |
| --- | --- | --- | --- | --- | --- | --- | --- | --- | --- | --- | --- |
| COC(=O)N[C@H](C(=O)N1CCC[C@H]1c1ncc(-c2ccc3c(c2)cc2n3[C@H](c3ccccc3)Oc3cc(-c4cnc([C@@H]5CCCN5C(=O)[C@@H](NC(=O)OC)C5CCOCC5)[nH]4)ccc3-2)[nH]1)C(C)C | 0.4 | 11 | 4 | 0.061 | 31 | 30 | 45 |  |  |  |  |
| COC(=O)N[C@H](C(=O)N1CCC[C@H]1c1ncc(-c2ccc3c(c2)O[C@@H](c2ccccc2)n2c-3cc3cc(-c4cnc([C@@H]5CCCN5C(=O)[C@@H](NC(=O)OC)C5CCOCC5)[nH]4)ccc32)[nH]1)C1CCOCC1 | < 0.2 | 23 | 1.2 | 0.06 |  |  |  | 0 | 20 | 4 | 144 |
| COC(=O)N[C@@H](CC1CCOCC1)C(=O)N1CCC[C@H]1c1ncc(-c2ccc3c(c2)cc2n3[C@H](c3ccccc3)Oc3cc(-c4cnc([C@@H]5CCCN5C(=O)[C@@H](NC(=O)OC)C(C)C)[nH]4)ccc3-2)[nH]1 | 0.33 | 24 | 8.9 | 0.014 |  |  |  |  |  |  |  |
